Legend:
[1] = Clinical study of methylphenidate delivery profiles in school children (SKAMP, CLAM, mathematics test, activity monitor); type: in vivo, human; settings: 36 school children
Protocol: (§1) The CLAM Test is a behavior rating that indicates social conformity or rebellion as developed by Conners, Lonez, and Milch and SKAMP is a rating that also measures behavior as developed by Swanson and reported in Psychopharmacological Bulletin, Vol. 21, pp. 887-890 (1985).
(§2) The effect measurements in this study were: (1) observer ratings on SKAMP scale (during classroom time) and (2) performance on the computerized mathematics test. Each child was tested on the mathematics test before the study began, and based on this pre-test during the study, a mathematics test appropriate for each child's ability was given. The morning and evening parent CLAM assessments were used to identify unusual behaviors. The evening parent CLAM was used to determine the presence of treatment effects in the evening hours, particularly treatment effects on the time the child fell asleep, and whether the child's sleep was interrupted. All of the children also wore an activity monitor (Actigraph) which records the movements of the child throughout the day. The activity (number of movements per minute) is recorded electronically and modeled as a function of the drug effect.
The immediate release tablet and the sustained-release dosage form were compared to a sustained-release dosage form that administered methylphenidate in an ascending profile. The sustained-release ascending profile corresponds to administering 4.2 mg at zero hour, 1.1 mg at 1.5 hours, 1.1 mg at 2 hours, 1.2 mg at 2.5 hours, 1.2 mg at 3.0 hours, 1.3 mg at 3.5 hours, 1.3 mg at 4 hours, 1.5 mg at 4.5 hours, 1.5 mg at 5 hours, 1.8 mg at 5.5 hours, 1.8 mg at 6 hours, and 2.0 mg at 6.5 hours, to produce the sustained-ascending release dotted line profile seen in Figure 2.
The accompanying figures present the results of the above-described study. […]

[2] = Clinical study of sustained-ascending versus three-times-a-day immediate release methylphenidate (behavior, combined attention); type: in vivo, human
Protocol: as §1, §2
The results of a clinical study that comprises administering methylphenidate according to two distinct delivery programs are reported in this example. In the study, a sustained-ascending profile corresponds to administering methylphenidate as follows: 8 mg at zero hours, 1.4 mg at 1.5 hours, 1.4 mg at 2.0 hours, 1.7 mg at 2.5 hours, 1.7 mg at 3.0 hours, 2.0 mg at 3.5 hours, 2.0 mg at 4.0 hours, 2.2 mg at 4.5 hours, 2.2 mg at 5.0 hours, 2.2 mg at 5.5 hours, 2.2 mg at 6.0 hours, 2.4 mg at 6.5 hours, 2.4 mg at 7.0 hours, 2.6 mg at 7.5 hours, and 1.9 mg at 8.0 hours. The methylphenidate was administered in overcoated capsules comprising a total of 36 mg of methylphenidate with 22% in the exterior overcoat. The ascending dose was administered with the first dose at 0730 followed by ascending doses every 30 minutes until 1530 to produce the intended ascending plasma concentration. […]

COC(=O)C(c1ccccc1)C1CCCCN1 (stereo not drawn) [methylphenidate]
therapeutic effect and tolerance ([1]; controlled-sustained ascending profile (4.2 mg at zero hour rising to 2.0 mg at 6.5 hours)): the desired therapeutic effect without tolerance | clinical effect (activity, mathematical scores, inappropriate behavior) ([1]; sustained-nonascending dose, 20 mg methylphenidate (8.3 mg at zero hour then 0.9 mg every 0.5 h to 7.5 hours)): a decrease in activity, higher mathematical scores and a lessening of inappropriate behavior | acute tolerance ([1]; sustained-nonascending dose, 20 mg methylphenidate): development of acute tolerance | behavior, acquired tolerance ([2]; sustained ascending program, 36 mg total, 0730 to 1530, 32 children with attention deficient hyperactivity disorder, Figure 7): absence of acquired tolerance | combined attention parameter, developed tolerance ([2]; sustained-ascending release, 36 mg total, 32 children, Figure 8): essentially free of developed tolerance | combined attention parameter, acquired tolerance ([2]; three daily immediate release, 10 mg at 0730, 1130 and 1530, 32 children, Figure 8): with acquired tolerance
